According to patent US8957093B2, “N-biphenylmethylindole modulators of PPARG” (The Scripps Research Institute, priority 2011, dated 2015):
Like-named read-outs stand apart in the source and are kept apart here.

Tests used:
[1] = molecular target: Gal-4-PPAR (human PPAR LBD fused to GAL4 DNA-binding domain) (Homo sapiens (Human), UniProt P37231); assay: GAL4-PPARG LBD / UAS-luciferase transactivation assay in HEK 293T cells; assay type: cell-based
[2] = molecular target: GST-PPARG-LBD (Homo sapiens (Human), UniProt P37231); assay: Lanthascreen PPARG competitive binding assay (Invitrogen, TR-FRET); conditions: NA = not active, inc = incomplete curve, read-out: IC50 (nM) Lantha
In short: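 TR-FRET competitive binding of GST-PPARG-LBD with 5 nM Tb-GST-antibody and 5 nM Fluormone Pan-PPAR Green tracer, in TR-FRET buffer C. Compound serially diluted from 10 μM, 2 h dark incubation, in triplicate. Readout is 520/490 nm emission ratio (340 nm excitation), expressed as fold change over 2% DMSO control.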

[3] = GAL4 transactivation, HEK 293T cells; NA = not active; read-out: EC50 (nM) GAL4
[4] = HEK-293T, 18 h; read-out: % transactivation at 10 μM (GAL4)
[5] = Lanthascreen competitive binding
[6] = HEK-293T, 18 h, read-out: % transactivation at 10 μM (GAL4)
[7] = GAL4 transactivation; read-out: EC50 (nM) GAL4
[8] = Lanthascreen PPARG competitive binding

Sequence of Gal-4-PPAR (human PPAR LBD fused to GAL4 DNA-binding domain) (P37231 238-503): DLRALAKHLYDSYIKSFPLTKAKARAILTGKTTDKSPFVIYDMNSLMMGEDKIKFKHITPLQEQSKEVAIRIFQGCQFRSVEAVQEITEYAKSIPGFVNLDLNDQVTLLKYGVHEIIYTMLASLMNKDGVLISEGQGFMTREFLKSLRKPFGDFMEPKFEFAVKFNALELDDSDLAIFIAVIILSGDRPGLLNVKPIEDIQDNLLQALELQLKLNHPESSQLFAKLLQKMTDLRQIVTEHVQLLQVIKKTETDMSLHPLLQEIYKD
Sequence of GST-PPARG-LBD (P37231 238-503): as above

EC50 [1, 3] [nM]	IC50 [2, 5] [nM]	activation at 10 µM [1, 6] [%]	Structure (SMILES)	activation at 10 µM [1, 4] [%]	EC50 [1, 7] [nM]	IC50 [2, 8] [nM]
172	11		Cc1cc(Cl)ccc1[C@H](C)NC(=O)c1ccc2c(c1)c(C)c(C)n2Cc1ccc(-c2ccccc2C(=O)O)cc1 [Example 226, (S)-4′-((5-((1-(4-chloro-2-methylphenyl)ethyl)carbamoyl)-2,3-dimethyl-1H-indol-1-yl)methyl)-[1,1′-biphenyl]-2-carboxylic acid]	20		
131	2	10	Cc1c(C)n(Cc2ccc(-c3ccccc3C(=O)O)cc2)c2ccc(C(=O)N[C@H](C)c3cccc(C(F)(F)F)c3Cl)cc12 [Example 231, (R)-4′-((5-((1-(2-chloro-3-(trifluoromethyl)phenyl)ethyl)carbamoyl)-2,3-dimethyl-1H-indol-1-yl)methyl)-[1,1′-biphenyl]-2-carboxylic acid]			
119	1	60	Cc1c(C)n(Cc2ccc(-c3ccccc3C(=O)O)cc2)c2ccc(C(=O)NC(C)(C)c3ccc(Br)cc3)cc12 [Example 180, 4′-((5-((2-(4-bromophenyl)propan-2-yl)carbamoyl)-2,3-dimethyl-1H-indol-1-yl)methyl)-[1,1′-biphenyl]-2-carboxylic acid]			
173	36	20	Cc1c(C)n(Cc2ccc(-c3ccccc3C(=O)O)cc2)c2ccc(C(=O)N[C@@H](C)c3ccc(F)cc3C(F)(F)F)cc12 [Example 227, (S)-4′-((5-((1-(4-fluoro-2-(trifluoromethyl)phenyl)ethyl)carbamoyl)-2,3-dimethyl-1H-indol-1-yl)methyl)-[1,1′-biphenyl]-2-carboxylic acid]			
180	5		Cc1c(C)n(Cc2ccc(-c3ccccc3C(=O)O)cc2)c2ccc(C(=O)N[C@@H](C)c3ccc(F)cc3F)cc12 [Example 150, (S)-4′-((5-((1-(2,4-difluorophenyl)ethyl)carbamoyl)-2,3-dimethyl-1H-indol-1-yl)methyl)-[1,1′-biphenyl]-2-carboxylic acid]	30		
			Cc1cccc([C@H](C)NC(=O)c2ccc3c(c2)c(C)c(C)n3Cc2ccc(-c3ccccc3C(=O)O)cc2)c1 [Example 295, (S)-4′-((2,3-Dimethyl-5-((1-(m-tolyl)ethyl)carbamoyl)-1H-indol-1-yl)methyl)-[1,1′-biphenyl]-2-carboxylic acid]	10	60	11
383	7	35	Cc1c(C)n(Cc2ccc(-c3ccccc3C(=O)O)cc2)c2ccc(C(=O)N[C@@H](C)c3ccccc3F)cc12 [Example 160, (S)-4′-((5-((1-(2-fluorophenyl)ethyl)carbamoyl)-2,3-dimethyl-1H-indol-1-yl)methyl)-[1,1′-biphenyl]-2-carboxylic acid]			
417	118		Cc1c(C)n(Cc2ccc(-c3ccccc3C(=O)O)cc2)c2ccc(C(=O)N[C@@H](C)[C@@H]3CCCN3C(=O)OCc3ccccc3)cc12 [Example 237, 4′-((5-(((S)-1-((S)-1-((benzyloxy)carbonyl)pyrrolidin-2-yl)ethyl)carbamoyl)-2,3-dimethyl-1H-indol-1-yl)methyl)-[1,1′-biphenyl]-2-carboxylic acid]	30		
55	2		COc1cccc([C@@H](C)NC(=O)c2ccc3c(c2)c(C)c(C)n3Cc2ccc(-c3ccccc3C(=O)O)cc2)c1 [Example 161, (R)-4′-((5-((1-(3-methoxyphenyl)ethyl)carbamoyl)-2,3-dimethyl-1H-indol-1-yl)methyl)-[1,1′-biphenyl]-2-carboxylic acid]	30		
987	19	30	Cc1c(C)n(Cc2ccc(-c3ccccc3C(=O)O)cc2)c2ccc(C(=O)NCc3ccc(F)cc3F)cc12 [Example 164, 4′-((5-((2,4-difluorobenzyl)carbamoyl)-2,3-dimethyl-1H-indol-1-yl)methyl)-[1,1′-biphenyl]-2-carboxylic acid]			
			Cc1c(C)n(Cc2ccc(-c3ccccc3C(=O)O)cc2)c2ccc(C(=O)N[C@@H](C)c3ccc(C(F)(F)F)cc3F)cc12 [Example 298, (S)-4′-((5-((1-(2-Fluoro-4-(trifluoromethyl)phenyl)ethyl)carbamoyl)-2,3-dimethyl-1H-indol-1-yl)methyl)-[1,1′-biphenyl]-2-carboxylic acid]	10	448	11
			Cc1c(C)n(Cc2ccc(-c3ccccc3C(=O)O)cc2)c2ccc(C(=O)NC(C)c3cncc(Br)c3)cc12 (stereo not drawn) [Example 275, 4′-((5-(1-(5-bromopyridin-3-yl)ethylcarbamoyl)-2,3-dimethyl-1H-indol-1-yl)methyl)biphenyl-2-carboxylic acid]	35	572	8
7540	41		Cc1c(C)n(Cc2ccc(-c3ccccc3C(=O)O)cc2)c2ccc(C(=O)N[C@@H](C)c3ccncc3Cl)cc12 [Example 148, (S)-4′-((5-((1-(3-chloropyridin-4-yl)ethyl)carbamoyl)-2,3-dimethyl-1H-indol-1-yl)methyl)-[1,1′-biphenyl]-2-carboxylic acid]	35		
297	18		Cc1c(C)n(Cc2ccc(-c3ccccc3C(=O)O)cc2)c2ccc(C(=O)N[C@@H](C)c3cccc(Cl)c3F)cc12 [Example 232, (S)-4′-((5-((1-(3-chloro-2-fluorophenyl)ethyl)carbamoyl)-2,3-dimethyl-1H-indol-1-yl)methyl)-[1,1′-biphenyl]-2-carboxylic acid]	30		
			Cc1c(C)n(Cc2ccc(-c3ccccc3C(=O)O)cc2)c2ccc(C(=O)N[C@@H](C)c3cccc(C(F)(F)F)c3F)cc12 [Example 299, (S)-4′-((5-((1-(2-Fluoro-3-(trifluoromethyl)phenyl)ethyl)carbamoyl)-2,3-dimethyl-1H-indol-1-yl)methyl)-[1,1′-biphenyl]-2-carboxylic acid]	15	346	27
169	17	15	Cc1c(C)n(Cc2ccc(-c3ccccc3C(=O)O)cc2)c2ccc(C(=O)N[C@H](C)c3cc(F)ccc3C(F)(F)F)cc12 [Example 239, (R)-4′-((5-((1-(5-fluoro-2-(trifluoromethyl)phenyl)ethyl)carbamoyl)-2,3-dimethyl-1H-indol-1-yl)methyl)-[1,1′-biphenyl]-2-carboxylic acid]			

Structure (SMILES)	EC50 [1, 3] [nM]	IC50 [2, 5] [nM]	activation at 10 µM [1, 6] [%]	activation at 10 µM [1, 4] [%]	EC50 [1, 7] [nM]	IC50 [2, 8] [nM]
Cc1c(C)n(Cc2ccc(-c3ccccc3C(=O)O)cc2)c2ccc(C(=O)N[C@@H](C)c3ccc(C4CC4)cn3)cc12 [Example 261, (S)-4′-((5-((1-(5-cyclopropylpyridin-2-yl)ethyl)carbamoyl)-2,3-dimethyl-1H-indol-1-yl)methyl)-[1,1′-biphenyl]-2-carboxylic acid]	50	4		30		
Cc1c(C)n(Cc2ccc(-c3ccccc3C(=O)O)cc2)c2ccc(C(=O)N[C@H](C)c3ccc(C(F)(F)F)cc3C(F)(F)F)cc12 [Example 209, (R)-4′-((5-((1-(2,4-bis(trifluoromethyl)phenyl)ethyl)carbamoyl)-2,3-dimethyl-1H-indol-1-yl)methyl)-[1,1′-biphenyl]-2-carboxylic acid]	211	11		10		
Cc1c(C)n(Cc2ccc(-c3ccccc3C(=O)O)cc2)c2ccc(C(=O)N[C@@H](C)C3COc4ccccc4O3)cc12 (stereo partly drawn) [Example 214, 4′-((5-(((1S)-1-(2,3-dihydrobenzo[b][1,4]dioxin-2-yl)ethyl)carbamoyl)-2,3-dimethyl-1H-indol-1-yl)methyl)-[1,1′-biphenyl]-2-carboxylic acid]	2350	25		20		
Cc1c(C)n(Cc2ccc(-c3ccccc3C(=O)O)cc2)c2ccc(C(=O)N[C@@H](C)c3ccnc(Br)c3)cc12 [Example 267, (S)-4′-((5-(1-(2-bromopyridin-4-yl)ethylcarbamoyl)-2,3-dimethyl-1H-indol-1-yl)methyl)biphenyl-2-carboxylic acid]	2490	98		40		
COc1cc(C(F)(F)F)ccc1[C@@H](C)NC(=O)c1ccc2c(c1)c(C)c(C)n2Cc1ccc(-c2ccccc2C(=O)O)cc1 [Example 224, (R)-4′-((5-((1-(2-methoxy-4-(trifluoromethyl)phenyl)ethyl)carbamoyl)-2,3-dimethyl-1H-indol-1-yl)methyl)-[1,1′-biphenyl]-2-carboxylic acid]	86	2		20		
Cc1c(C)n(Cc2ccc(-c3ccccc3-c3nnn[nH]3)cc2)c2ccc(C(=O)N[C@@H](C)c3cccc(C4CC4)c3)cc12 [Example 188, (S)-1-((2′-(1H-tetrazol-5-yl)-[1,1′-biphenyl]-4-yl)methyl)-N-(1-(3-cyclopropylphenyl)ethyl)-2,3-dimethyl-1H-indole-5-carboxamide]	3150	10		20		
COc1ccc(F)cc1[C@H](C)NC(=O)c1ccc2c(c1)c(C)c(C)n2Cc1ccc(-c2ccccc2C(=O)O)cc1 [Example 206, (S)-4′-((5-((1-(5-fluoro-2-methoxyphenyl)ethyl)carbamoyl)-2,3-dimethyl-1H-indol-1-yl)methyl)-[1,1′-biphenyl]-2-carboxylic acid]	405	26		20		
